IC50 data for ten compounds are collected here from ChEMBL document CHEMBL1129891, “Synthesis and cytotoxic activity of alkylidene- and alkyl-substituted camptothecins” (Bioorg Med Chem Lett, 1997).

The structures appear in SMILES notation.

The subject of test [1] is L1210. The test is described as follows: Concentration required to inhibit 50% of cell growth in L1210 murine leukemia cell line after 48 hr continuous treatment. Type of test: functional, cell-based. The note with it: Mus musculus, L1210, 48 h.
Test [2] addresses T1, DNA topoisomerase 1 (Homo sapiens, UniProt P11387).
T1 sequence (P11387 whole entry): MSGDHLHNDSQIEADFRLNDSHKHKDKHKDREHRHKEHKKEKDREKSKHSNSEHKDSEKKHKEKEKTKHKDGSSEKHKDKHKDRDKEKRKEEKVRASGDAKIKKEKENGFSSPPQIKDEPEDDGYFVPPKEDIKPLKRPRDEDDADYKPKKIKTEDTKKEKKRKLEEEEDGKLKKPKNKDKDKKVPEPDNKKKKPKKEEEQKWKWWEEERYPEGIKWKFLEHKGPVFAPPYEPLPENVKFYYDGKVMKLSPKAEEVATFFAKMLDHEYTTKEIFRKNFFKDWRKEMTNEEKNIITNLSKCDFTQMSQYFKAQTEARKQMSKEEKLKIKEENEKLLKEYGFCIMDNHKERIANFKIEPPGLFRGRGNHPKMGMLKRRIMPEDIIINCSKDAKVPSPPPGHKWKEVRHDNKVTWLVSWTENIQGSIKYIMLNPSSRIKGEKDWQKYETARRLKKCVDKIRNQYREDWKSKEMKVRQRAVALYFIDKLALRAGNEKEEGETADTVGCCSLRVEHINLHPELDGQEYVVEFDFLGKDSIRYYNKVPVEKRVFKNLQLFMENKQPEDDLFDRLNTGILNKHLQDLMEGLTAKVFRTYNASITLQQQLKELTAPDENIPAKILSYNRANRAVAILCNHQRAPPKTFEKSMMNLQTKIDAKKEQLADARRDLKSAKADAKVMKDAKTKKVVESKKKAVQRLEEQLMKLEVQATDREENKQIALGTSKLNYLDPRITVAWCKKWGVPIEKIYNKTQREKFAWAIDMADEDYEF
The test is described as follows: Concentration required to inhibit 50% relaxation of 250 ng of SV40 DNA obtained with 0.5 I.U topoisomerase I at 37 degrees C for 30 min.

For the compound `CC[C@@]1(O)C(=O)OCc2c1cc1n(c2=O)Cc2cc3c(/C=C(\NC(C)=O)C(=O)OC)cccc3nc2-1`, the IC50 (in general, the concentration needed to halve the response being measured) in test [1] was 1180 nM; in test [2], 31900 nM.

Take `CC[C@@]1(O)C(=O)OCc2c1cc1n(c2=O)Cc2cc3cc(/C=C/C(=O)OC)ccc3nc2-1`: the figures for the IC50 in test [1] and in test [2] were 62.3 nM and more than 100000 nM, respectively. The matching figures for `CC[C@@]1(O)C(=O)OCc2c1cc1n(c2=O)Cc2cc3c(CC(NC(C)=O)C(=O)OC)cccc3nc2-1` (some centres undefined): 183 nM and 11300 nM.

In the case of `CC[C@@]1(O)C(=O)OCc2c1cc1n(c2=O)Cc2cc3c(/C=C/C(=O)OC)cccc3nc2-1`, the IC50 in test [1] came out at 7.6 nM; in test [2], 6700 nM. `CC[C@@]1(O)C(=O)OCc2c1cc1n(c2=O)Cc2cc3c(CCc4ccccc4)cccc3nc2-1`: the IC50 was 16.3 nM in test [1] and more than 100000 nM in test [2].

Turning to `C=Cc1cccc2nc3c(cc12)Cn1c-3cc2c(c1=O)COC(=O)[C@]2(O)CC`, the IC50 in test [1] turned out to be 7.5 nM; in test [2] it was 4200 nM. The matching figures for `CC[C@@]1(O)C(=O)OCc2c1cc1n(c2=O)Cc2cc3c(/C=C/C(N)=O)cccc3nc2-1`: 121 nM and 3200 nM.

In turn, `CC[C@@]1(O)C(=O)OCc2c1cc1n(c2=O)Cc2cc3c(N)cccc3nc2-1` [9-AMINOCAMPTOTHECIN] showed an IC50 in test [2] of 1800 nM. On to `CC[C@@]1(O)C(=O)OCc2c1cc1n(c2=O)Cc2cc3c(/C=C/c4ccccc4)cccc3nc2-1`, for which the IC50 was 15.8 nM in test [1] and more than 100000 nM in test [2]. The matching figures for `CC[C@@]1(O)C(=O)OCc2c1cc1n(c2=O)Cc2cc3c(CCC(=O)OC)cccc3nc2-1`: 6.2 nM and 41800 nM.
